Assay results published in paper PMC9544171, “Glucose‐dependent insulinotropic polypeptide receptor antagonist treatment causes a reduction in weight gain in ovariectomised high fat diet‐fed mice” (British Journal of Pharmacology, 2022).
Where no end group is shown, it is not given here.

Key:
mouse GIP receptor [1] = molecular target: T1, mouse GIP receptor (Mus musculus, UniProt Q0P543); assay: cAMP accumulation, agonism (intrinsic activity) in transfected COS‐7 cells; type: cell-based; settings: increasing concentrations of ligand alone, 30 min, COS‐7, n = 5
T1 construct: host or cells: COS-7
T1 sequence (Q0P543 19-460): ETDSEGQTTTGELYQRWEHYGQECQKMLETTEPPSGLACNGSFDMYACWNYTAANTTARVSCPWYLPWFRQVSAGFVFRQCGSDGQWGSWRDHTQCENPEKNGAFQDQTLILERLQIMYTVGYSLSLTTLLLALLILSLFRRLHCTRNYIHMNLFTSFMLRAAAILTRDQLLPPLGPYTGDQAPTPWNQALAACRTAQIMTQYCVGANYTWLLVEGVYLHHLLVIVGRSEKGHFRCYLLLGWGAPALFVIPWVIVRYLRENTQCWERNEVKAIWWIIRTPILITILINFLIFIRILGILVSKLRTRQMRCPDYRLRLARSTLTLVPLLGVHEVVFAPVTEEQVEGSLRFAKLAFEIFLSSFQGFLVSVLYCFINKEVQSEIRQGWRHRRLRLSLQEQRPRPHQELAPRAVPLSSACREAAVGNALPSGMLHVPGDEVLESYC
Method: (§1) COS‐7 cells were cultured at 10% CO2 and 37°C in Dulbecco's Modified Eagle Medium 1885 supplemented with 10% foetal bovine serum, 2‐mM glutamine, 180‐units ml^−1 penicillin and […] streptomycin. Transient transfection of the cells with either human or mouse GIP receptor was performed using the calcium phosphate precipitation method as previously described (van der Velden et al., [2021]). A second set of cells was transiently transfected with either mouse GLP‐1 or GLP‐2 receptor. Following the day after transfection, the cells were seeded in white 96‐well plates with a density of 35.000 cells per well. The next day the assay was initiated by washing the cells with HEPES buffered saline (HBS) followed by an incubation step with HBS and 1‐mM 3‐isobutyl‐1‐methylxanthine for 30 min at 37°C. For agonist studies, the ligands were then added and incubated for an additional 30 min at 37°C. To test for antagonistic properties, the cells were first preincubated for 10 min with the antagonist with subsequent addition of the agonist and incubated for an additional 20 min. The HitHunter® cAMP assay (Eurofins DiscoverX, Fremont, USA) was carried out according to the manufacturer's protocol. Luminescence was measured by PerkinElmer™ Envision 2014 Multilabel Reader.
(§2) To facilitate comparisons of assay outputs (cAMP assays), the results (of duplicate measurements) were normalized, with the response to 10 pM of GIP(1‐42) set as 100%. All ligand concentrations are reported as log‐transformed. The IC50 log values can be found in Figure 1. In Figure 3c, we have subtracted glucose levels from baseline to show the net differences in glucose levels in our different treatment groups.
FIGURE 1 In vitro signalling profile of mGIPAnt‐1 on the mouse and human glucose‐dependent insulinotropic polypeptide receptor/(GIPR). COS‐7 cells were transiently transfected with (a) mouse GIPR or (b) human GIPR and assayed for cAMP accumulation. To test for agonism, increasing concentration of the ligand was added. […]

mouse GIP receptor [2] = molecular target: T1, mouse GIP receptor; assay: cAMP accumulation, antagonism of mouse GIP(1‐42) in transfected COS‐7 cells; type: cell-based; settings: COS‐7 transiently transfected with mouse GIPR; 10 min preincubation with antagonist, then mouse GIP(1‐42) at 50%–80% of Emax for 20 min; HitHunter cAMP; Hill slope −1.0; n = 5 independent experiments; read-out: IC50, inhibition of mGIP‐induced cAMP accumulation, mouse GIPR
Method: as §1
as §2, with “groups. […]” for “groups.”
Results are presented as mean ± SE. Data were analysed with one‐way and two‐way analysis of variance (ANOVA) with Tukey's or Sidak multiple comparisons test and Student's unpaired t tests where appropriate. […] For the in vitro data IC50 values were determined by nonlinear regression using GraphPad Prism 9 (San Diego, California, USA). […]

Female C57Bl6/J mice = assay: Intraperitoneal glucose tolerance test, inhibition of exogenous GIP; type: in vivo, mouse
Method: To assess the biological activity of mGIPAnt‐1, we performed an intraperitoneal glucose tolerance test. Mice were fasted for 4 h and given either mGIPAnt‐1 ([…]; s.c.) or vehicle at t = −90 min. Group sizes were as follows:‐ Vehicle + Vehicle, n = 10, Vehicle + GIP, n = 12 and mGIPAnt‐1 + GIP, n = 8. Varying group numbers were due to unsuccessful administration of one of the four compounds as confirmed by measurements of plasma concentrations. At t = −10 all mice were given an intraperitoneal (i.p.) injection with dipeptidyl peptidase‐4 (DPP‐4) inhibitor valine pyrrolidide followed by s.c. injection of either 25 nmol·kg^−1 GIP (Synthetic mouse GIP(1‐42) or vehicle. At t = 0 min, mice received an i.p. injection with 0.5‐g·kg^−1 glucose. Blood glucose was measured from the tail vein using a hand‐held glucometer (Accu‐Chek Mobile, Roche, Basel, Switzerland) at t = 0, 10, 30, 45, 60, 120 and 180 min. Retro‐orbital blood samples (50 μl) were taken using EDTA coated glass capillaries (Vitrex, Vasekær, Denmark) at t = 0, 15, 30 and 60, 120 and 180 min and centrifuged at 3500g, 20 min, 4°C. Plasma was transferred into Eppendorf tubes on dry ice and stored at −20°C for later insulin measurements.
as §2

human GIP receptor = molecular target: T2, human GIP receptor (Homo sapiens, UniProt P48546); settings: previously shown, [2016], cited from earlier work
T2 construct: host or cells: COS-7
T2 sequence (P48546 22-466): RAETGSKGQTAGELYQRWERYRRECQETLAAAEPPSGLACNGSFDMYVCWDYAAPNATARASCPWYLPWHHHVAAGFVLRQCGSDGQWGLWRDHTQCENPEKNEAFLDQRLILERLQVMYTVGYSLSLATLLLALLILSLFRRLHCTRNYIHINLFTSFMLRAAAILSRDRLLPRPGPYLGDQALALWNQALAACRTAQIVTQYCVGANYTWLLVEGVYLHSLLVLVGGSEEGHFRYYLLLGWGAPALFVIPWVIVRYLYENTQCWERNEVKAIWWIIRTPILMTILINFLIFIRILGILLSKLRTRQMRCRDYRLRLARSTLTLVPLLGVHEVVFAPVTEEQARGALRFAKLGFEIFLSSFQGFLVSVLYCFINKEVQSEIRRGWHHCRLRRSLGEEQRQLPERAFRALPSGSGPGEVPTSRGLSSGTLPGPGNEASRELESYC
Method: The antagonistic properties of mGIPAnt‐1 were determined in vitro in cAMP accumulation before initiation of the in vivo studies in comparison to the naturally occurring […] GIP(3‐30)NH2. The experiments were done on both the human and mouse GIP receptor to examine the translatability between species. To keep the experiments species specific, mGIPAnt‐1 was compared to mouse GIP(3‐30)NH2 (mGIP(3‐30)NH2) on the mouse GIP receptor and human GIP(3‐30)NH2 (hGIP(3‐30)NH2) on the human GIP receptor. We also determined whether mGIPAnt‐1 had any intrinsic activity. Here we observed no activation of the ...

mouse GLP‐2 receptor = molecular target: T3, mouse GLP‐2 receptor (Mus musculus, UniProt Q5IXF8); assay: cAMP accumulation, agonism in transfected COS‐7 cells; type: cell-based; settings: increasing concentrations, COS‐7, n = 5
T3 construct: host or cells: COS-7
T3 sequence (Q5IXF8 1-512): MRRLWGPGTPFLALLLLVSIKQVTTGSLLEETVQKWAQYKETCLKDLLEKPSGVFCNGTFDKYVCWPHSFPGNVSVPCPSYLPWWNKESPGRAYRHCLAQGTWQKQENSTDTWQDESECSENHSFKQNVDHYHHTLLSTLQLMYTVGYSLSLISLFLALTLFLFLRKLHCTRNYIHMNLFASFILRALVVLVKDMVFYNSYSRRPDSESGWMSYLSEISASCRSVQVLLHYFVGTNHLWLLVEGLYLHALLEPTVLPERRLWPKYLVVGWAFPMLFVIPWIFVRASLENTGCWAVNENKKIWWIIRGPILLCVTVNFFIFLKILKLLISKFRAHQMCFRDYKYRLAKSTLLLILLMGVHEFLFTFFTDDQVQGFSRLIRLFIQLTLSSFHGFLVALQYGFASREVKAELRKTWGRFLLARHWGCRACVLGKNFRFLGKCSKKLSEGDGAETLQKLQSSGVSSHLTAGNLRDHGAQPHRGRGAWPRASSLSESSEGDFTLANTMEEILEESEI
Method: as §1
FIGURE 2 In vitro signalling profile of mGIPAnt‐1 on the mouse GLP‐1 and GLP‐2 receptor (R). […]

CC[C@H](C)[C@H](NC(=O)[C@H](CO)NC(=O)[C@H](Cc1ccc(O)cc1)NC(=O)[C@H](CC(=O)O)NC(=O)[C@H](CO)NC(=O)[C@@H](NC(=O)[C@H](Cc1ccccc1)NC(=O)[C@@H](NC(=O)CNC(=O)[C@@H](N)CCC(=O)O)[C@@H](C)O)[C@@H](C)CC)C(=O)N[C@@H](C)C(=O)N[C@@H](CCSC)C(=O)N[C@@H](CC(=O)O)C(=O)N[C@@H](CCCCN)C(=O)N[C@H](C(=O)N[C@@H](CCCNC(=N)N)C(=O)N[C@@H](CCC(N)=O)C(=O)N[C@@H](CCC(N)=O)C(=O)N[C@@H](CC(=O)O)C(=O)N[C@@H](Cc1ccccc1)C(=O)N[C@H](C(=O)N[C@@H](CC(N)=O)C(=O)N[C@@H](Cc1c[nH]c2ccccc12)C(=O)N[C@@H](CC(C)C)C(=O)N[C@@H](CC(C)C)C(=O)N[C@@H](C)C(=O)N[C@@H](CCC(N)=O)C(=O)N[C@@H](CCCNC(=N)N)C(N)=O)C(C)C)[C@@H](C)CC [mGIP(3‐30)NH2, mouse GIP(3‐30)NH2, reference compound]
intrinsic activity (activation of mouse GIP receptor, cAMP) (mouse GIP receptor [1]): neither did mGIP(3‐30)NH2 activate
IC50 (mouse GIP receptor [2]): 813 nM

Synthetic mouse GIP(1‐42) (YAEGTFISDYSIAMDKIRQQDFVNWLLAQRGKKSDWKHNITQ; Gastric inhibitory polypeptide; UniProt P48756 44-85, looked up) [reference compound]
baseline‐subtracted glucose curve during IPGTT (Female C57Bl6/J mice; mGIPAnt‐1 25 μmol·kg−1 s.c. t = −90 min, GIP 25 nmol·kg−1 s.c. and val‐pyr t = −10 min, glucose 0.5 g·kg−1 i.p., n = 8–12): lowered glucose levels significantly from t = 45 min and onwards
glucose levels relative to baseline late in IPGTT (Female C57Bl6/J mice; t = 120 and 180 min, same dosing as glucose curve): glucose levels dropped significantly below baseline at t = 120 and t = 180 min
incremental area under the glucose curve (iAUC), IPGTT (Female C57Bl6/J mice; vehicle + GIP 25 nmol·kg−1 versus vehicle + vehicle and versus mGIPAnt‐1 + GIP): significantly different

human GIP(3‐30)NH2 (EGTFISDYSIAMDKIHQQDFVNWLLAQK-NH2; UniProt P09681 54-81, looked up, fragment) [hGIP(3‐30)NH2]
intrinsic activity (activation of human GIP receptor) (human GIP receptor; ref Gabe et al., [2018], Gasbjerg et al., [2017], Hansen et al.): no activation
IC50 (human GIP receptor; ref Hansen et al., read-out: IC50, antagonism of human GIPR): 12 nM

mGLP‐2: mouse GLP‐2, control agonist at the mouse GLP‐2 receptor (HADGSFSDEMSTILDNLATRDFINWLIQTKITD; Glucagon-like peptide 2; UniProt P55095 146-178, looked up) [reference compound]
activation of mouse GLP‐2 receptor (cAMP) (mouse GLP‐2 receptor): shown to activate their receptors
